The values below come from ChEMBL document CHEMBL1141812, “bis-5-Alkylresorcinols from Panopsis rubescens that inhibit DNA polymerase beta” (J Nat Prod, 1999).

In one assay the target is DNA polymerase beta (Rattus norvegicus, UniProt P06766). Nature of the assay: Inhibition of rat DNA polymerase beta assessed as [3H]TTP incorporation after 60 mins by scintillation counting in presence of bovine serum albumin.
Assay [1] addresses DNA polymerase beta (Rattus norvegicus) (UniProt P06766). Nature of the assay: Inhibition of rat DNA polymerase beta assessed as [3H]TTP incorporation at 10 ug/mL after 60 mins by scintillation counting.
Assay [2] shares this target. As to the kind of experiment: Inhibition of rat DNA polymerase beta assessed as [3H]TTP incorporation at 50 ug/mL after 60 mins by scintillation counting.

Broadly, the IC50 is the concentration that inhibits the measured activity by half. The term inhibition denotes the percentage by which the read-out fell short of the control. `Oc1cc(O)cc(CCCCCC/C=C\CCCCCCc2cc(O)cc(O)c2)c1`: the IC50 on DNA polymerase beta turned out to be 6.5 µM. For the same compound, the inhibition in assay [1] was found to be 44%; in assay [2] it was 92%.

Regarding `Oc1cc(O)cc(CCCCCCCCCCCCCCc2cc(O)cc(O)c2)c1` [BISNORSTRIATOL], the half-maximal inhibitory concentration (IC50) at DNA polymerase beta worked out at 5.8 µM. Also, the inhibition in assay [1] stood at 50%; in assay [2], 79%.

Turning to `Oc1cc(O)cc(CCC/C=C\CCCCCCCCCc2cc(O)cc(O)c2)c1`, on DNA polymerase beta, the IC50 came out at 7.5 µM. Further, the inhibition in assay [1] came to 51%; in assay [2], 98%.
